Measured values reported in the Kinase Knowledgebase extract (Sharma et al. 2016).

Target: CDK2 (UniProt P24941)
Assay: Enzyme Assay

| Compound | IC50 |
| --- | --- |
| CN1CCN(C(=O)c2cc3[nH]nc(NC(=O)c4ccc(F)cc4)c3s2)CC1 | < 500 nM |
| CCCCNC(=O)c1cc2[nH]nc(NC(=O)C3CC3)c2s1 | < 500 nM |
| Cc1c(C(=O)NCc2ccc(F)cc2)sc2c(NC(=O)c3ccc(F)cc3)n[nH]c12 | < 500 nM |
| CN1CCN(c2ccc(C(=O)Nc3n[nH]c4cc(C(=O)NCc5ccoc5)sc34)cc2)CC1 | < 500 nM |
| C=CCNC(=O)c1cc2[nH]nc(NC(=O)NCc3ccccc3)c2s1 | < 500 nM |
| C[C@@H](NC(=O)c1cc2c(NC(=O)c3ccc(N4CCN(C)CC4)cc3)n[nH]c2s1)c1ccccc1 | < 500 nM |
| CN1CCN(c2ccc(C(=O)Nc3n[nH]c4cc(C(=O)NCc5ccco5)sc34)cc2)CC1 | < 500 nM |
| O=C(Nc1n[nH]c2cc(C(=O)O)sc12)c1ccc(N2CCOCC2)cc1 | < 500 nM |
| CN1CCN(C(=O)c2cc3[nH]nc(NC(=O)c4ccc(F)cc4)c3o2)CC1 | < 500 nM |

Results, then the compound that gave them:

| IC50 | Compound |
| --- | --- |
| < 500 nM | CCCCNC(=O)c1cc2[nH]nc(NC(=O)CCCC)c2s1 |
| < 500 nM | CCC(NC(=O)c1cc2[nH]nc(NC(=O)c3ccc(N4CCOCC4)cc3)c2o1)c1ccccc1 (configuration not stated) |
| < 500 nM | O=C(Nc1n[nH]c2cc(C(=O)O)oc12)c1ccc(N2CCOCC2)cc1 |
| < 500 nM | CCCCNC(=O)c1cc2[nH]nc(NC(=O)c3cccs3)c2s1 |
| < 500 nM | CCNC(=O)c1cc2[nH]nc(NC(=O)c3ccc(N4CCN(C)CC4)cc3)c2s1 |
| < 500 nM | O=C(Nc1n[nH]c2cc(C(=O)NCc3ccccc3)sc12)c1cc(F)cc(F)c1 |
| < 500 nM | Cc1c(C(=O)NCc2ccc(F)cc2)sc2c(NC(=O)c3cccs3)n[nH]c12 |
| < 500 nM | CCC(NC(=O)c1cc2[nH]nc(NC(=O)c3ccc(N4CCN(C)CC4)cc3)c2o1)c1ccccc1 (configuration not stated) |
